The text below walks through data of ChEMBL document CHEMBL6114954, “Design, synthesis and cytotoxic activity of novel lipophilic cationic derivatives of diosgenin and sarsasapogenin” (Bioorg Med Chem Lett, 2025).

What is called pIC50 is −log10 of the IC50, conventionally taken in molar units. Read a high pIC50 as a low IC50.

In experiment [1] the test system is A549. Description: Induction of mitochondrial membrane potential depolarization in human A549 cells at 4 uM by JC-1 staining based flow cytometry (reference value: 7.4 %). The experiment is classed as functional. (In flow cytometry, cells or beads pass a laser one at a time.)
Experiment [2] concerns A549. Description: Induction of apoptosis in human A549 cells assessed as apoptosis ratio at 4 uM incubated for 24 hrs by Annexin V-FITC/PI staining based flow cytometry (reference value: 4.38 %). The experiment is classed as functional.
In experiment [3] the test system is A549. Description: Induction of intracellular ROS generation in human A549 cells incubated for 48 hrs by DCFH-DA staining based analysis. The experiment is classed as functional, cell-based. To be noted: dose 1-4 µM.
In experiment [4] the test system is A549. The experiment in a line: Induction of apoptosis in human A549 cells assessed as apoptosis ratio at 1 uM incubated for 24 hrs by Annexin V-FITC/PI staining based flow cytometry (reference value: 4.38 %). The experiment is classed as functional.
For experiment [5], the system named is A549. Description: Induction of mitochondrial membrane potential depolarization in human A549 cells at 1 uM by JC-1 staining based flow cytometry (reference value: 7.4 %). The experiment is classed as functional.
Experiment [6] deals with A549. The experiment in a line: Induction of cell cycle arrest in human A549 cells assessed as accumulation at G0/G1 phase at 1 to 4 uM incubated for 24 hrs by PI staining based flow cytometry. The class given is functional. The settings on record: dose 1-4 µM.
For experiment [7], the system named is A549. Description: Induction of apoptosis in human A549 cells assessed as apoptosis ratio at 2 uM incubated for 24 hrs by Annexin V-FITC/PI staining based flow cytometry (reference value: 4.38 %). The experiment is classed as functional.
Experiment [8] deals with A549. The experiment in a line: Cytotoxicity against human A549 cells. The class given is functional, cell-based.
Experiment [9] deals with A549. Description: Induction of apoptosis in human A549 cells assessed as decrease in Bcl-2 level by Western blot analysis. The class given is functional, cell-based. To be noted: dose <= 4.0 µM. On the technique in general: A western blot detects proteins with antibodies after separation by electrophoresis.
The subject of a further experiment is HepG2. The experiment in a line: Cytotoxicity against human HepG2 cells. The class given is functional, cell-based.
Experiment [10] concerns A549. Description: Induction of apoptosis in human A549 cells assessed as decrease in pro-caspase 3 level upto 4 microM by Western blot analysis. The class given is functional, cell-based.
In another experiment the test system is MDA-MB-231. Description: Cytotoxicity against human MDA-MB-231 cells. The experiment is classed as functional, cell-based.
Experiment [11] deals with A549. Description: Induction of apoptosis in human A549 cells assessed as increase in Bax level by Western blot analysis. The class given is functional, cell-based. The settings on record: dose <= 4.0 µM.
For experiment [12], the system named is A549. The experiment in a line: Induction of mitochondrial membrane potential depolarization in human A549 cells at 2 uM by JC-1 staining based flow cytometry (reference value: 7.4 %). The class given is functional.

pIC50: −log10 of the molar value. Active and inactive are the calls of the source. The calls are words filed in the database; no cut-off is given here.

Consider `CC1CC[C@@]2(OC1)O[C@H]1C[C@H]3[C@@H]4CC=C5C[C@@H](OC(=O)CCC[P+](c6ccccc6)(c6ccccc6)c6ccccc6)CC[C@]5(C)[C@H]4CC[C@]3(C)[C@H]1[C@@H]2C.[Br-]` (some centres not stated), for which the Activity in the experiment with A549 [1] is 91.2%; in the experiment with A549 [2], 48.2%; with A549 [3], “Dose-dependent-effect”; in the experiment with A549 [4] it was 8.51%; with A549 [5] it was 17.4%; in the experiment with A549 [7], 23.95%. Also, the results for the Activity result with A549 [9], in the experiment on A549 [11] and in the experiment on A549 [12] were “Dose-dependent-effect”, “Dose-dependent-effect” and 40.6%, respectively. For the same compound, the result in the experiment with A549 [6] and in the experiment on A549 [10] was Active. Moreover, the pIC50 is 6.02 in the experiment on A549 [8], 5.40 with HepG2 and 5.38 with MDA-MB-231.

Consider `CC[N+]1(CCCC(=O)OC[C@H](C)CC[C@H]2O[C@H]3C[C@H]4[C@@H]5CC=C6C[C@@H](OC(C)=O)CC[C@]6(C)[C@H]5CC[C@]4(C)[C@H]3[C@@H]2C)CCOCC1`, for which the pIC50 in the experiment on A549 [8] is 4.76; in the experiment on HepG2 it was under 4.30; in the experiment on MDA-MB-231, under 4.30.

Regarding `CC[N+]1(CCCC(=O)O[C@H]2CC[C@@]3(C)C(=CC[C@H]4[C@@H]5C[C@@H]6O[C@]7(CCC(C)CO7)[C@@H](C)[C@@H]6[C@@]5(C)CC[C@@H]43)C2)CCCC1` (some centres not stated), the values for the pIC50 in the experiment on A549 [8], with HepG2 and in the experiment on MDA-MB-231 were 4.79, 4.77 and 4.58, respectively.

`CC[N+]1(CCCC(=O)OC[C@H](C)CC[C@H]2O[C@H]3C[C@H]4[C@@H]5CC=C6C[C@@H](OC(C)=O)CC[C@]6(C)[C@H]5CC[C@]4(C)[C@H]3[C@@H]2C)CCc2ccccc2C1` (some centres not stated): the figures for the pIC50 with A549 [8], in the experiment on HepG2 and in the experiment with MDA-MB-231 were 4.84, 4.47 and 4.46, respectively.

With `CC1CC[C@@]2(OC1)O[C@H]1C[C@H]3[C@@H]4CC=C5C[C@@H](OC(=O)C[P+](c6ccccc6)(c6ccccc6)c6ccccc6)CC[C@]5(C)[C@H]4CC[C@]3(C)[C@H]1[C@@H]2C` (some centres not stated), the pIC50 with A549 [8] was 4.81; in the experiment with HepG2, 4.65; in the experiment on MDA-MB-231 it was 4.48.

`CC1CC[C@@]2(OC1)O[C@H]1C[C@H]3[C@@H]4CC=C5C[C@@H](OC(=O)CCCCC[P+](c6ccccc6)(c6ccccc6)c6ccccc6)CC[C@]5(C)[C@H]4CC[C@]3(C)[C@H]1[C@@H]2C` (some centres not stated): the results for the pIC50 in the experiment with A549 [8], in the experiment with HepG2 and with MDA-MB-231 were 5.91, 5.38 and 5.26, respectively.

In the case of `CC[N+]1(CCCC(=O)O[C@H]2CC[C@@]3(C)[C@H](CC[C@@H]4[C@@H]3CC[C@]3(C)[C@@H]5[C@H](C[C@@H]43)O[C@]3(CCC(C)CO3)[C@H]5C)C2)CCc2ccccc2C1` (some centres not stated), the pIC50 is 4.97 with A549 [8], 5.02 with HepG2 and 4.86 in the experiment on MDA-MB-231.

For the compound `CC1CC[C@@]2(OC1)O[C@H]1C[C@H]3[C@@H]4CC[C@@H]5C[C@@H](OC(=O)CCC[P+](c6ccccc6)(c6ccccc6)c6ccccc6)CC[C@]5(C)[C@H]4CC[C@]3(C)[C@H]1[C@@H]2C` (some centres not stated), the results for the pIC50 in the experiment on A549 [8], with HepG2 and with MDA-MB-231 were 6.00, 5.46 and 5.44, respectively.

For the compound `CC[N+]1(CCCC(=O)O[C@H]2CC[C@@]3(C)[C@H](CC[C@@H]4[C@@H]3CC[C@]3(C)[C@@H]5[C@H](C[C@@H]43)O[C@]3(CCC(C)CO3)[C@H]5C)C2)CCOCC1` (some centres not stated), the pIC50 in the experiment with A549 [8] is 4.73; in the experiment on HepG2, 4.65; in the experiment on MDA-MB-231, 4.46.

As to `CC1CC[C@@]2(OC1)O[C@H]1C[C@H]3[C@@H]4CC[C@@H]5C[C@@H](OC(=O)CCCCC[P+](c6ccccc6)(c6ccccc6)c6ccccc6)CC[C@]5(C)[C@H]4CC[C@]3(C)[C@H]1[C@@H]2C` (some centres not stated), the pIC50 with A549 [8] is 5.89; with HepG2, 5.38; in the experiment on MDA-MB-231, 5.30.

Regarding `CC[N+]1(CCCC(=O)O[C@H]2CC[C@@]3(C)C(=CC[C@H]4[C@@H]5C[C@@H]6O[C@]7(CCC(C)CO7)[C@@H](C)[C@@H]6[C@@]5(C)CC[C@@H]43)C2)CCc2ccccc2C1` (some centres not stated), the pIC50 with A549 [8] was 5.07; with HepG2, 4.73; in the experiment on MDA-MB-231, 4.69.

Consider `CC1CC[C@@]2(OC1)O[C@H]1C[C@H]3[C@@H]4CC[C@@H]5C[C@@H](OC(=O)C[P+](c6ccccc6)(c6ccccc6)c6ccccc6)CC[C@]5(C)[C@H]4CC[C@]3(C)[C@H]1[C@@H]2C` (some centres not stated), for which the pIC50 in the experiment with A549 [8] is 5.28; in the experiment on HepG2, 4.65; in the experiment on MDA-MB-231, 4.37.

For the compound `CC[N+]1(CCCC(=O)O[C@H]2CC[C@@]3(C)C(=CC[C@H]4[C@@H]5C[C@@H]6O[C@]7(CCC(C)CO7)[C@@H](C)[C@@H]6[C@@]5(C)CC[C@@H]43)C2)CCNCC1` (some centres not stated), the pIC50 with A549 [8] is 4.73; in the experiment with HepG2 it was 4.47; with MDA-MB-231, 4.31.

For the compound `CC[N+]1(CCCC(=O)O[C@H]2CC[C@@]3(C)[C@H](CC[C@@H]4[C@@H]3CC[C@]3(C)[C@@H]5[C@H](C[C@@H]43)O[C@]3(CCC(C)CO3)[C@H]5C)C2)CCCC1` (some centres not stated), the pIC50 was 4.81 in the experiment on A549 [8], 5.04 with HepG2 and 4.79 in the experiment with MDA-MB-231.

Turning to `CC[N+]1(CCCC(=O)OC[C@H](C)CC[C@H]2O[C@H]3C[C@H]4[C@@H]5CC=C6C[C@@H](OC(C)=O)CC[C@]6(C)[C@H]5CC[C@]4(C)[C@H]3[C@@H]2C)CCCCC1`, the pIC50 in the experiment on A549 [8] was 4.74; in the experiment on HepG2, under 4.30; in the experiment on MDA-MB-231, under 4.30.

`CC(=O)O[C@H]1CC[C@@]2(C)C(=CC[C@H]3[C@@H]4C[C@@H]5O[C@H](CC[C@@H](C)COC(=O)CC[P+](c6ccccc6)(c6ccccc6)c6ccccc6)[C@@H](C)[C@@H]5[C@@]4(C)CC[C@@H]32)C1`: the figures for the negative-log IC50 (pIC50) in the experiment on A549 [8], in the experiment on HepG2 and with MDA-MB-231 were 5.22, 4.58 and 4.41, respectively.

With `CC(=O)O[C@H]1CC[C@@]2(C)C(=CC[C@H]3[C@@H]4C[C@@H]5O[C@H](CC[C@@H](C)COC(=O)CCC[P+](c6ccccc6)(c6ccccc6)c6ccccc6)[C@@H](C)[C@@H]5[C@@]4(C)CC[C@@H]32)C1`, the pIC50 is 5.22 with A549 [8], 4.62 in the experiment on HepG2 and 4.50 with MDA-MB-231.
